No end group written: not given here. *: point of attachment. undeca‑saccharide = not defined here; Decanoyl = CCCCCCCCCC(=O)*
B1: AGM-212(E17C-11 sugar) (peptide)
peptide: HGEGTFTSDLSKQMEEC(undeca‑saccharide)AVRLFIEWLKNGGPSK(Decanoyl)
modifications: reading uncertain
B2: AGM-212(E17C-11 sugar & N28C-11 sugar) (peptide)
peptide: HGEGTFTSDLSKQMEEC(undeca‑saccharide)AVRLFIEWLKC(undeca‑saccharide)GGPSK(Decanoyl)
modifications: reading uncertain
B3: AGM-212(E17C-11 sugar & E24C-11 sugar) (peptide)
peptide: HGEGTFTSDLSKQMEEC(undeca‑saccharide)AVRLFIC(undeca‑saccharide)WLKNGGPSK(Decanoyl)
modifications: reading uncertain

Key:
rat islets = test: Glucose-dependent insulin secretion from rat islets, rat insulin ELISA (part I); type: cell-based; conditions: 28 mM glucose
Excerpt: Specifically, the pancreas of 8-week-old SD rats (Damul Science) was extracted, and islets were isolated.

human GLP-1R [1] = target: human GLP-1R (Homo sapiens, UniProt P43220); test: GLP-1 receptor luciferase reporter assay (part I, glycosylated analogs); type: cell-based; conditions: CV-1 cells transfected with human GLP-1R and CRE, Table 2
Sequence of human GLP-1R (Homo sapiens, UniProt P43220) (P43220 24-463): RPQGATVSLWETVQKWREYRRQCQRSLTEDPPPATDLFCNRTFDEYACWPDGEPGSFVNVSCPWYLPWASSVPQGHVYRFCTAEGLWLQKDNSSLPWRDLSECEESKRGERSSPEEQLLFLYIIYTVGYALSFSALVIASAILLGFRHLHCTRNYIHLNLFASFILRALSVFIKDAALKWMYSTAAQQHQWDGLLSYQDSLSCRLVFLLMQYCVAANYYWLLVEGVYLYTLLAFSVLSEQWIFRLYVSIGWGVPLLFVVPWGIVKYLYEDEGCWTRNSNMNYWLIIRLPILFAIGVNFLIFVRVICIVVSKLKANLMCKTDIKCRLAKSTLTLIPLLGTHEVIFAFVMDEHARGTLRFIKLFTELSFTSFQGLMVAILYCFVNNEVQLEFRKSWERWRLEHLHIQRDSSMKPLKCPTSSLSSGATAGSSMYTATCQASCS
Description: Specifically, the fibroblast cell line CV-1 (1×10^4 cells/ml, Korea Cell Line Bank) was cultured on a 96-well white cell culture plate for 24 hours, and then human GLP-1R (pcDNA3.1_hGLP-1R) and cAMP response element (CRE, pcDNA3.1_hCRE) were added to perform transfection. After 24 hours, the medium was exchanged with a serum-free medium, followed by culture for 16 hours, and then each analog was treated for 6 hours. The expression level of luciferase, a reporter gene, by activated GLP-1R, was quantified by a luminometer, and the results are shown in Table 2.

Solubility by HPLC = type: physicochemical; conditions: at 10 mg/ml
human GLP-1R [2] = target: human GLP-1R (human, UniProt P43220 24-463); test: cell-based or functional assay

Molecule	Insulin secretion from rat islets (rat islets; 10 nM analog, Table 4) [pg/mL]	Insulin secretion from rat islets (rat islets; 100 nM analog, Table 4) [pg/mL]	Emax (fold induction over basal) (human GLP-1R [1])	Emax (fold induction over basal), CRE-luciferase reporter (human GLP-1R [2]) [fold induction over basal]	also measured
CCCCCCCCCC(=O)NCCCC[C@H](NC(=O)[C@H](CO)NC(=O)[C@@H]1CCCN1C(=O)CNC(=O)CNC(=O)[C@H](CC(N)=O)NC(=O)[C@H](CCCCN)NC(=O)[C@H](CC(C)C)NC(=O)[C@H](Cc1c[nH]c2ccccc12)NC(=O)[C@H](CSCC(=O)N[C@@H]1O[C@H](CO)[C@@H](O[C@@H]2O[C@H](CO)[C@@H](O[C@@H]3O[C@H](CO[C@H]4O[C@H](CO)[C@@H](O)[C@H](O)[C@@H]4O[C@@H]4O[C@H](CO)[C@@H](O[C@@H]5O[C@H](CO[C@]6(C(=O)OCc7ccccc7)C[C@H](O)[C@@H](NC(C)=O)[C@H]([C@H](O)[C@H](O)CO)O6)[C@H](O)[C@H](O)[C@H]5O)[C@H](O)[C@H]4NC(C)=O)[C@@H](O)[C@H](O[C@H]4O[C@H](CO)[C@@H](O)[C@H](O)[C@@H]4O[C@@H]4O[C@H](CO)[C@@H](O[C@@H]5O[C@H](CO[C@]6(C(=O)OCc7ccccc7)C[C@H](O)[C@@H](NC(C)=O)[C@H]([C@H](O)[C@H](O)CO)O6)[C@H](O)[C@H](O)[C@H]5O)[C@H](O)[C@H]4NC(C)=O)[C@@H]3O)[C@H](O)[C@H]2NC(C)=O)[C@H](O)[C@H]1NC(C)=O)NC(=O)[C@@H](NC(=O)[C@H](Cc1ccccc1)NC(=O)[C@H](CC(C)C)NC(=O)[C@H](CCCNC(=N)N)NC(=O)[C@@H](NC(=O)[C@H](C)NC(=O)[C@H](CSCC(=O)N[C@@H]1O[C@H](CO)[C@@H](O[C@@H]2O[C@H](CO)[C@@H](O[C@@H]3O[C@H](CO[C@H]4O[C@H](CO)[C@@H](O)[C@H](O)[C@@H]4O[C@@H]4O[C@H](CO)[C@@H](O[C@@H]5O[C@H](CO[C@]6(C(=O)OCc7ccccc7)C[C@H](O)[C@@H](NC(C)=O)[C@H]([C@H](O)[C@H](O)CO)O6)[C@H](O)[C@H](O)[C@H]5O)[C@H](O)[C@H]4NC(C)=O)[C@@H](O)[C@H](O[C@H]4O[C@H](CO)[C@@H](O)[C@H](O)[C@@H]4O[C@@H]4O[C@H](CO)[C@@H](O[C@@H]5O[C@H](CO[C@]6(C(=O)OCc7ccccc7)C[C@H](O)[C@@H](NC(C)=O)[C@H]([C@H](O)[C@H](O)CO)O6)[C@H](O)[C@H](O)[C@H]5O)[C@H](O)[C@H]4NC(C)=O)[C@@H]3O)[C@H](O)[C@H]2NC(C)=O)[C@H](O)[C@H]1NC(C)=O)NC(=O)[C@H](CCC(=O)O)NC(=O)[C@H](CCC(=O)O)NC(=O)[C@H](CCSC)NC(=O)[C@H](CCC(N)=O)NC(=O)[C@H](CCCCN)NC(=O)[C@H](CO)NC(=O)[C@H](CC(C)C)NC(=O)[C@H](CC(=O)O)NC(=O)[C@H](CO)NC(=O)[C@@H](NC(=O)[C@H](Cc1ccccc1)NC(=O)[C@@H](NC(=O)CNC(=O)[C@H](CCC(=O)O)NC(=O)CNC(=O)[C@@H](N)Cc1c[nH]cn1)[C@@H](C)O)[C@@H](C)O)C(C)C)[C@@H](C)CC)C(=O)O [AGM-212(E17C-11 sugar & E24C-11 sugar)]	6763.40 ± 32.83	14650.94 ± 3305.28	9.7 ± 1.2	–	–
CCCCCCCCCC(=O)NCCCC[C@H](NC(=O)[C@H](CO)NC(=O)[C@@H]1CCCN1C(=O)CNC(=O)CNC(=O)[C@H](CSCC(=O)N[C@@H]1O[C@H](CO)[C@@H](O[C@@H]2O[C@H](CO)[C@@H](O[C@@H]3O[C@H](CO[C@H]4O[C@H](CO)[C@@H](O)[C@H](O)[C@@H]4O[C@@H]4O[C@H](CO)[C@@H](O[C@@H]5O[C@H](CO[C@]6(C(=O)OCc7ccccc7)C[C@H](O)[C@@H](NC(C)=O)[C@H]([C@H](O)[C@H](O)CO)O6)[C@H](O)[C@H](O)[C@H]5O)[C@H](O)[C@H]4NC(C)=O)[C@@H](O)[C@H](O[C@H]4O[C@H](CO)[C@@H](O)[C@H](O)[C@@H]4O[C@@H]4O[C@H](CO)[C@@H](O[C@@H]5O[C@H](CO[C@]6(C(=O)OCc7ccccc7)C[C@H](O)[C@@H](NC(C)=O)[C@H]([C@H](O)[C@H](O)CO)O6)[C@H](O)[C@H](O)[C@H]5O)[C@H](O)[C@H]4NC(C)=O)[C@@H]3O)[C@H](O)[C@H]2NC(C)=O)[C@H](O)[C@H]1NC(C)=O)NC(=O)[C@H](CCCCN)NC(=O)[C@H](CC(C)C)NC(=O)[C@H](Cc1c[nH]c2ccccc12)NC(=O)[C@H](CCC(=O)O)NC(=O)[C@@H](NC(=O)[C@H](Cc1ccccc1)NC(=O)[C@H](CC(C)C)NC(=O)[C@H](CCCNC(=N)N)NC(=O)[C@@H](NC(=O)[C@H](C)NC(=O)[C@H](CSCC(=O)N[C@@H]1O[C@H](CO)[C@@H](O[C@@H]2O[C@H](CO)[C@@H](O[C@@H]3O[C@H](CO[C@H]4O[C@H](CO)[C@@H](O)[C@H](O)[C@@H]4O[C@@H]4O[C@H](CO)[C@@H](O[C@@H]5O[C@H](CO[C@]6(C(=O)OCc7ccccc7)C[C@H](O)[C@@H](NC(C)=O)[C@H]([C@H](O)[C@H](O)CO)O6)[C@H](O)[C@H](O)[C@H]5O)[C@H](O)[C@H]4NC(C)=O)[C@@H](O)[C@H](O[C@H]4O[C@H](CO)[C@@H](O)[C@H](O)[C@@H]4O[C@@H]4O[C@H](CO)[C@@H](O[C@@H]5O[C@H](CO[C@]6(C(=O)OCc7ccccc7)C[C@H](O)[C@@H](NC(C)=O)[C@H]([C@H](O)[C@H](O)CO)O6)[C@H](O)[C@H](O)[C@H]5O)[C@H](O)[C@H]4NC(C)=O)[C@@H]3O)[C@H](O)[C@H]2NC(C)=O)[C@H](O)[C@H]1NC(C)=O)NC(=O)[C@H](CCC(=O)O)NC(=O)[C@H](CCC(=O)O)NC(=O)[C@H](CCSC)NC(=O)[C@H](CCC(N)=O)NC(=O)[C@H](CCCCN)NC(=O)[C@H](CO)NC(=O)[C@H](CC(C)C)NC(=O)[C@H](CC(=O)O)NC(=O)[C@H](CO)NC(=O)[C@@H](NC(=O)[C@H](Cc1ccccc1)NC(=O)[C@@H](NC(=O)CNC(=O)[C@H](CCC(=O)O)NC(=O)CNC(=O)[C@@H](N)Cc1c[nH]cn1)[C@@H](C)O)[C@@H](C)O)C(C)C)[C@@H](C)CC)C(=O)O [AGM-212(E17C-11 sugar & N28C-11 sugar)]	11250.94 ± 624.53	22183.40 ± 830.19	9.8 ± 1.3	–	solubility (Solubility by HPLC; H2O): < 8300 µg/mL; solubility (Solubility by HPLC; PBS): < 9500 µg/mL
CCCCCCCCCC(=O)NCCCC[C@H](NC(=O)[C@H](CO)NC(=O)[C@@H]1CCCN1C(=O)CNC(=O)CNC(=O)[C@H](CC(N)=O)NC(=O)[C@H](CCCCN)NC(=O)[C@H](CC(C)C)NC(=O)[C@H](Cc1c[nH]c2ccccc12)NC(=O)[C@H](CCC(=O)O)NC(=O)[C@@H](NC(=O)[C@H](Cc1ccccc1)NC(=O)[C@H](CC(C)C)NC(=O)[C@H](CCCNC(=N)N)NC(=O)[C@@H](NC(=O)[C@H](C)NC(=O)[C@H](CSCC(=O)N[C@@H]1O[C@H](CO)[C@@H](O[C@@H]2O[C@H](CO)[C@@H](O[C@@H]3O[C@H](CO[C@H]4O[C@H](CO)[C@@H](O)[C@H](O)[C@@H]4O[C@@H]4O[C@H](CO)[C@@H](O[C@@H]5O[C@H](CO[C@]6(C(=O)OCc7ccccc7)C[C@H](O)[C@@H](NC(C)=O)[C@H]([C@H](O)[C@H](O)CO)O6)[C@H](O)[C@H](O)[C@H]5O)[C@H](O)[C@H]4NC(C)=O)[C@@H](O)[C@H](O[C@H]4O[C@H](CO)[C@@H](O)[C@H](O)[C@@H]4O[C@@H]4O[C@H](CO)[C@@H](O[C@@H]5O[C@H](CO[C@]6(C(=O)OCc7ccccc7)C[C@H](O)[C@@H](NC(C)=O)[C@H]([C@H](O)[C@H](O)CO)O6)[C@H](O)[C@H](O)[C@H]5O)[C@H](O)[C@H]4NC(C)=O)[C@@H]3O)[C@H](O)[C@H]2NC(C)=O)[C@H](O)[C@H]1NC(C)=O)NC(=O)[C@H](CCC(=O)O)NC(=O)[C@H](CCC(=O)O)NC(=O)[C@H](CCSC)NC(=O)[C@H](CCC(N)=O)NC(=O)[C@H](CCCCN)NC(=O)[C@H](CO)NC(=O)[C@H](CC(C)C)NC(=O)[C@H](CC(=O)O)NC(=O)[C@H](CO)NC(=O)[C@@H](NC(=O)[C@H](Cc1ccccc1)NC(=O)[C@@H](NC(=O)CNC(=O)[C@H](CCC(=O)O)NC(=O)CNC(=O)[C@@H](N)Cc1c[nH]cn1)[C@@H](C)O)[C@@H](C)O)C(C)C)[C@@H](C)CC)C(=O)O [AGM-212(E17C-11 sugar)]	–	–	10.1 ± 1.2	–	Insulin secretion from rat islets (rat islets; 10 nM analog, Table 3): 7895.09 ± 2457.36 pg/mL; Insulin secretion from rat islets (rat islets; 100 nM analog, Table 3): 9523.02 ± 2852.08 pg/mL
B1	–	–	–	10.1	–
B2	–	–	–	9.8	–
B3	–	–	–	9.7	–

Reference: US20220323548A1 (priority 2019, published 2022)
